Where two headings read alike, the source gives them in different places.
What was measured:
[1] = molecular target: SARS-CoV-2 3CL^Pro (M^pro) (Severe acute respiratory syndrome coronavirus 2 (2019-nCoV) (SARS-CoV-2), UniProt P0DTD1); assay: Enzymatic assay for M^pro (3CL Protease, MBP-tagged assay kit); type: biochemical; conditions: for inhibition at 0.2 µM: 2×10^−7 M, read-out: M^pro enzyme inhibition
Description: FIG. 1.3A and 1.3B illustrate the enzyme inhibition by the selected sterols and secosteroids. […] Min=negative control without any enzyme (0% enzyme activity), Max=positive control with enzyme and substrate (100% enzyme activity). […] The statistical significance of differences was evaluated by one-way ANOVA, *p<0.05, **p<0.01, ***p<0.001, for all conditions relative to the ethanol blank, n=3. FIG. 1.3B illustrates the RdRP enzyme activity inhibition by selected sterols and secosteroids. […] Min=negative control without any enzyme (0% enzyme activity), Max=positive control with enzyme and substrate (100% enzyme activity). The statistical significance of differences was evaluated by one-way ANOVA, *p<0.05, **p<0.01, ***p<0.001, for all conditions relative to the ethanol blank, n=3
The SARS-CoV-2 3CL^Pro (M^pro), MBP-tagged Assay Kit (BPS Biosciences, San Diego, CA, USA) was used to measure 3CL Protease (M^pro) activity for screening and profiling applications. The 3CL inhibitor GC376 was included as a positive control and also used as a standard. The assay was performed according to the protocol provided by the manufacturer with the concentration of compounds tested being 10^−7 M.

SARS-CoV-2 RdRP = SARS-CoV-2 RdRP (Severe acute respiratory syndrome coronavirus 2 (2019-nCoV) (SARS-CoV-2), UniProt P0DTD1); assay: Enzymatic assay for RdRP (AlphaScreen, BPS Biosciences); type: biochemical
Description: Min=negative control without any enzyme (0% enzyme activity), Max=positive control with enzyme and substrate (100% enzyme activity). […] The statistical significance of differences was evaluated by one-way ANOVA, *p<0.05, **p<0.01, ***p<0.001, for all conditions relative to the ethanol blank, n=3. […] Min=negative control without any enzyme (0% enzyme activity), Max=positive control with enzyme and substrate (100% enzyme activity). The statistical significance of differences was evaluated by one-way ANOVA, *p<0.05, **p<0.01, ***p<0.001, for all conditions relative to the ethanol blank, n=3
The assay for RdRP activity was outsourced to BPS Biosciences ([…], California, USA) using the following protocol. […] The RdRP reactions were performed in triplicate at 37° C. for 60 min in a 10 μl mixture containing assay buffer, RNA duplex, ATP substrate and enzyme, and the test compound. The reactions were carried out in wells of 384-well Optiplate (PerkinElmer). After enzymatic reactions, 10 μl of anti-Dig Acceptor beads (PerkinElmer, diluted 1:500 with lx detection buffer) were added to the reaction mix. After brief shaking, the plate was incubated for 30 min. […] The values of % activity versus the concentrations of the compound tested were then plotted using non-linear regression analysis of a Sigmoidal dose-response curve generated with the equation Y=B+(T−B)/1+10^((LogEC50−X)×Hill Slope), where Y=percent activity, B=minimum percent activity, T=maximum percent activity, X=logarithm of compound and Hill Slope=slope factor or Hill coefficient. The IC50 value was determined as the concentration causing half-maximal activity.

[2] = very high doses (3-60 μg/kg); cited from earlier work
human epithelial cells = assay: Gene Set Enrichment Analysis (GSEA) of microarray data (GSE117351), antiviral pathways; type: cell-based; set-up: key: ^..: the effect is absent
[3] = read-out: IC50 for inhibition of the enzyme activity of RdRP
[4] = pathway: Host Interactions with HIV factors
[5] = pathway: Host Interactions with Influenza Factors
[6] = pathway: Influenza Viral RNA Transcription & Replication

CC(C)[C@@H](O)CC[C@@H](C)[C@H]1CC[C@H]2C3=CC=C4C[C@@H](O)CC[C@@]4(C)[C@@H]3CC[C@]12C [24(OH)L3, 9β,10α-cholesta-5,7-diene-3β,24-diol]
inhibition at 0.2 µM [1]: 10 to 19%
IC50 (SARS-CoV-2 RdRP; [3]): 2500 nM

C[C@H](CCCC(C)(C)O)[C@H]1CC[C@H]2C3=CC=C4C[C@@H](O)CC[C@@]4(C)[C@@H]3CC[C@]12C [25(OH)L3, 9β,10α-cholesta-5,7-diene-3β,25-diol]
inhibition at 0.2 µM [1]: 10 to 19%
IC50 (SARS-CoV-2 RdRP; [3]): 500 nM

(3S,5Z,7E)-9,10-secocholesta-5,7,10(19)-trien-3,25-diol [25(OH)D3, reference compound]
inhibition of M^pro (in words) ([1]; 100 nM): significant inhibition
toxicity and calcemic activity [2]: calcemic
IC50 (SARS-CoV-2 RdRP; [3]): 1300 nM

C=C1/C(=C\C=C2/CCC[C@]3(C)[C@@H]([C@H](C)CCCC(C)(C)O)CC[C@@H]23)C[C@@H](O)C[C@@H]1O [1,25(OH)2D3, (3S,5Z,7E)-9,10-secocholesta-5,7,10(19)-trien-1,3,25-triol, reference compound]
GSEA Direction (human epithelial cells): ^..
GSEA NES (Normalized Enriched Score) (human epithelial cells): ^..
GSEA NES (Normalized Enriched Score) (human epithelial cells; pathway: HIV Life Cycle): −2.503
GSEA Direction (human epithelial cells; [4]): ^..
GSEA NES (Normalized Enriched Score) (human epithelial cells; [4]): ^..
GSEA Direction (human epithelial cells; [5]): ^..
GSEA NES (Normalized Enriched Score) (human epithelial cells; [5]): ^..
GSEA Direction (human epithelial cells; [6]): ^..
GSEA NES (Normalized Enriched Score) (human epithelial cells; [6]): ^..
GSEA NES (Normalized Enriched Score) (human epithelial cells; pathway: Late Phase of HIV Life Cycle): −2.658
GSEA NES (Normalized Enriched Score) (human epithelial cells; pathway: Viral Messenger RNA Synthesis): −2.405
GSEA NES (Normalized Enriched Score) (human epithelial cells; pathway: Viral mRNA Translation): −3.601
toxicity and calcemic activity [2]: calcemic

C=C1CC[C@H](O)C/C1=C/C=C1\CCC[C@@]2(C)[C@H]1CC[C@@H]2[C@@](C)(O)CCCC(C)C [20S(OH)D3, (3S,5Z,7E)-9,10-secocholesta-5,7,10(19)-trien-3,20-diol]
IC50 (SARS-CoV-2 RdRP): 2600 nM

CC(C)CCC[C@](C)(O)[C@H]1CC[C@H]2C3=CC=C4C[C@@H](O)CC[C@]4(C)[C@H]3CC[C@@]21C [20S(OH)7DHC, Cholesta-5,7-dien-3β,20-diol]
inhibition at 0.2 µM [1]: 10 to 19%
IC50 (SARS-CoV-2 RdRP; [3]): 4700 nM

C=C1CCC(O)CC1=CC=C1CCCC2(C)C1CCC2C(C)(O)C=CC(C)C(C)C (stereo not shown) [20(OH)D2, 20-hydroxyvitamin D2]
toxicity and calcemic activity [2]: not toxic and non-calcemic

CC(C)CCC[C@](C)(O)[C@H]1CC[C@H]2C3=CC=C4C[C@@H](O)CC[C@@]4(C)[C@@H]3CC[C@@]21C [20S(OH)L3, 9β,10α-cholesta-5,7-diene-3β,20-diol]
IC50 (SARS-CoV-2 RdRP; [3]): 1000 nM
